Source: patent US12011423B2, “S-alkylisothiouronium derivatives for treating uterine hypercontractility disorders” (FORAVISET LTD., priority 2007, dated 2024)

Assays:
women with uterine myoma [1] = settings: unpublished studies; cited from earlier work
[2] = tested on: women showing abnormal uterine bleeding; assay: Effect of vaginal suppositories on abnormal uterine bleeding in women (Example 1); format: in vivo
Method: Thirty-six women showing abnormal uterine bleeding were enrolled to this study. Each woman received one suppository of S-ethylisothiouronium diethylphosphate (100 mg of S-ethylisothiouronium diethylphosphate in 2 gr of Suppocire®, a suppository base obtained by esterification of hydrogenated palm oil and hydrogenated palm kelnel oil) per day, applied in the posterior vaginal fornix.

Wistar male rats = assay: Tail-flick test, pain under thermal stimulation (Example 2); format: in vivo
Method: The study was carried out on Wistar male rats (body weight of 210 g). The experiment was carried out on 30 rats divided into 3 groups of 10 animals each. The presence of pain was determined using the Tail-flick test, This method is based on monitoring the reaction time for the typical tail-withdrawal reflex as a result of thermal stimulation. First, the temperature (° C.) at which rat tails was withdrawn was determined, thus identifying the thermal level that caused pain. One hour later, the rats were injected intraperitoneally with S-ethylisothiouronium diethylphosphate in 0.9% NaCl. One group (10 rats) was injected with 5 mg/kg body weigh of S-ethylisothiouronium diethylphosphate, whilst the second and third groups (10 rats each) were injected with 10 and 20 mg/kg body weight, respectively.

[3] = tested on: women suffering from primary or secondary dysmenorrhea; assay: Effect of vaginal suppositories on pain in primary or secondary dysmenorrhea (Example 3); format: in vivo
Method: Vaginal suppositories containing S-ethylisothiouronium diethylphosphate (100 mg each/day) were applied to 28 women suffering from primary or secondary dysmenorrhea.

women with uterine myoma [4] = assay: S-ethylisothiouronium bromide in abnormal uterine hemorrhages and pelvic pains associated with uterine myoma (unpublished studies) and comparison; format: in vivo; settings: found to be preferable over S-ethylisothiouronium bromide
[5] = tested on: women patients having primary dysmenorrhea; assay: Effect on pelvic pains in women having primary dysmenorrhea (Example 4, group II); format: in vivo; settings: intravaginal administration
Method: Sixty-ninewomen having symptomatic uterine myoma or primary dysmenorrhea were enrolled to this study. The women were treated with vaginal suppositories of S-ethylisothiouronium diethylphosphate (100 mg of S-ethylisothiouronium diethylphosphate in 2 gr of Suppocire® per day, applied in the posterior vaginal fornix).
In addition, the effect of S-ethylisothiouronium diethylphosphate on pelvic pains was evaluated in 38 women patients having primary dysmenorrhea (group II). The average age of the patients was 24.8±4.1 years. All the 38 patients had experienced at least 6 painful menstrual cycles prior to their inclusion in the study. The duration of the menstrual cycle in all cases was normal, i.e., of 21-35 days, with the menstruation lasting 3-7 days. Further, none of the patients was treated with oral contraceptives for at least 6 months before enrollment. The patients were eligible for the study following the confirmation of normal hematological and biochemical indexes and exclusion of antecedent gynecological surgical procedures.
To evaluate the intensity of pain, the patients reported the pain intensity at the beginning of the study, during, and at the termination of the medical management using one of the following terms: absence of pain; greatly diminished pain; slightly diminished pain; similar pain as of the previous treatment; and intensification of pain. […]

[6] = 24 hours after beginning of treatment, 100 mg/day vaginal suppository, 28 women

Compound	duration of effect and side effects (women with uterine myoma [1])	effect on abnormal uterine hemorrhages and pelvic pains (women with uterine myoma [1])	complete disappearance of pathological uterine bleeding ([2]; after six suppositories (100 mg each), intravaginally, one per day, 36 women)	patients reporting menstrual cycles with a normal duration and interval ([2]; over the course of three consecutive months) [%]	intensity of bleeding moderately reduced, full haemostatic effect not reached ([2]; patients, vaginal suppositories 100 mg per day) [%]	Haemostasis obtained, on average, time from the start of treatment ([2]; vaginal suppositories 100 mg per day) [h]	increase of thermal level for tail withdrawal (Wistar male rats; 5 mg/kg intraperitoneal)	thermal level for tail withdrawal after injection (Wistar male rats; 5 mg/kg intraperitoneal, before injection 73+1.26° C.)	increase of pain reception level under thermal stimulation (Wistar male rats; 10 mg/kg body weight intraperitoneal)	pain reception level under thermal stimulation after injection (Wistar male rats; 10 mg/kg body weight intraperitoneal, before injection 73+3.63° C.)	increase of pain reception level (Wistar male rats; 20 mg/kg body weight intraperitoneal) [%]	pain reception level after injection (Wistar male rats; 20 mg/kg body weight intraperitoneal, before injection 73.5±2.07) [°C]	analgesic activity (conclusion in words) (Wistar male rats; tail-flick test, 5-20 mg/kg intraperitoneal)	complete disappearance of the pain [3, 6] [%]	significant decrease in the intensity of the pain [3, 6]	eradication of pain ([3]; 48 hours after beginning of treatment, after a second suppository)	comparison with S-ethylisothiouronium bromide (women with uterine myoma [4])	treated women in whom uterine cramps were abrogated [5]
Br.CCSC(=N)N [S-ethylisothiouronium bromide]	short-duration effect accompanied with side effects such as digestive disturbances and complications	effective in reducing the abnormal uterine hemorrhages and pelvic pains																
S-ethylisothiouronium diethylphosphate			87.8 % of cases	94.4	12.2	40 to 58	about 21%	89.01+5.11 °C	about 31%	96.4+3.98 °C	59	16.8±9.51	potent analgesic agent	39.3	60.7 % of the cases	fully eradicated in all treated women	longer bioactivity, higher efficacy, and little or no side-effects	about 95%
